Data: patent US11479551B2, “MTA-cooperative PRMT5 inhibitors” (Mirati Therapeutics, Inc., priority 2019, dated 2022)
Like-named read-outs stand apart in the source and are kept apart here.

What was measured:
[1] = test system: HCT116 homozygous MTAP knockout cells; assay: Proliferation assay (CellTiter-Glo, 10 days of treatment), HCT116 MTAP knockout; assay type: cell-based; settings: read-out: Proliferation HCT116MTAP_KO IC50
In short: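 Cells (250/well) seeded in McCoy's 5A with 10% FBS, then treated the next day with a PRMT5 inhibitor dose response at 37 °C, 5% CO2. On day 6 they were split 1:10 into fresh medium with the same compound concentration. CellTiter-Glo viability was read on day 11 and IC50 taken after 10 days of treatment.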

[2] = test system: HCT116 parental cells; assay: Proliferation assay (CellTiter-Glo, 10 days of treatment), HCT116 parental; assay type: cell-based
Experimental: (§1) Control samples were analyzed in parallel.
Briefly, on Day 0, 250 HCT116 parental or HCT116 homozygous MTAP knockout cell were seeded in 96 well plates in McCoy's 5A supplemented with 10% fetal bovine serum and pen/strep and the cells were incubated overnight at 37° C. plus 5% CO2.
The following day, cells were treated with DMSO vehicle control or a dose response of PRMT5 inhibitors and incubated at 37 C plus 5% CO2 for five days. On Day 6, the cells were trypsinized and split 1:10 into new 96-well plates with fresh medium containing the same concentration of PRMT5 inhibitor and incubated for an additional 5 days at 37° C. plus 5% CO^2.
On Day 11, the viability of the cells was measured using a CTG assay kit (CellTiter-Glo; Promega cat.no G7573) in accordance with the manufacturer's instructions. The IC50 values for each compound after 10 days of treatment were calculated using GraphPad PRISM software.

[3] = test system: PRMT5-dependent Symmetric Di-methyl Arginine signal in HCT116 homozygous MTAP knockout cells; assay: SYM11 In-Cell Western, HCT116 MTAP knockout; assay type: cell-based
[4] = test system: PRMT5-dependent Symmetric Di-methyl Arginine signal in HCT116 parental cells; assay: SYM11 In-Cell Western, HCT116 parental; assay type: cell-based; settings: 4 days of treatment, SYM11/DRAQ5 ratio
Experimental: as §1
Briefly, on Day 0, 2,000 HCT116 parental or HCT116 homozygous MTAP knockout cells were seeded in 96 well plates in McCoy's 5A supplemented with 10% fetal bovine serum and pen/strep and the cells were incubated overnight at 37° C. plus 5% CO2. The following day, cells were treated with DMSO vehicle control or a dose response of PRMT5 inhibitors, and incubated at 37° C. plus 5% CO^2 for four days.
After 4 days of treatment, the cells were fixed by adding 50 μl of 4% paraformaldehyde solution to each well and the cells were incubated for 20 min at room temperature. The paraformaldehyde solution was removed, 150 μl of ice-cold methanol was added and the plate was placed −20° C. for 10 minutes. The methanol was removed, 150 μl of Odyssey Blocking buffer+0.05% Tween20 was added and the plate was incubated at room temperature with shaking for one hour.
The primary SYM11 antibody solution was removed by aspiration and the wells were washed three consecutive times with phosphate buffered saline containing 0.1% Tween-20 (PBST).
The secondary antibody solution was removed by aspiration and the wells were washed three consecutive times with PB ST.
The SYM11 signal and the DRAQ5 signal were quantified using a Li-Cor Odyssey machine reading at […], respectively. The SYM11/DRAQ5 ratio was used to calculate the inhibition of Symmetric Dimethyl Arginine as percent of DMSO control.

[5] = target: T1, PRMT5/MEP50 complex (Homo sapiens (Human), UniProt O14744); assay: PRMT5:MEP50 HotSpot Assay (full-length histone H2A substrate, plus and minus MTA); assay type: biochemical; settings: in the presence of 2 μM MTA
In short: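 Radiometric filter-binding format using recombinant full-length histone H2A as substrate. After the reaction was stopped, mixtures went onto filter paper and tritiated H2A was quantified by scintillation counting.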

[6] = target: T1, PRMT5/MEP50 complex; assay: PRMT5:MEP50 FlashPlate Assay (histone H4 peptide substrate, plus and minus MTA); assay type: biochemical
Experimental: The PRMT5 inhibitory activity of compounds of the present invention was determined using either a PRMT5:MEP50 FlashPlate Assay (Reaction Biology Corporation) or a PRMT5:MEP50 HotSpot Assay (Reaction Biology Corporation).
1. PRMT5:MEP50 FlashPlate Assay

[7] = HCT116 homozygous MTAP knockout cells, 4 days of treatment, SYM11/DRAQ5 ratio, read-out: In-cell-Western (SYM11) HCT116 MTAP_KO IC50
[8] = IC50 + 2 μM MTA (nM), in the presence of 2 μM MTA
[9] = in the absence of MTA, read-out: IC50
[10] = Homo sapiens, HCT-116, 96 h, HCT116 homozygous MTAP knockout cells, 4 days of treatment, SYM11/DRAQ5 ratio, read-out: In-cell-Western (SYM11) HCT116 MTAP_KO IC50

T1 sequence (O14744 2-637): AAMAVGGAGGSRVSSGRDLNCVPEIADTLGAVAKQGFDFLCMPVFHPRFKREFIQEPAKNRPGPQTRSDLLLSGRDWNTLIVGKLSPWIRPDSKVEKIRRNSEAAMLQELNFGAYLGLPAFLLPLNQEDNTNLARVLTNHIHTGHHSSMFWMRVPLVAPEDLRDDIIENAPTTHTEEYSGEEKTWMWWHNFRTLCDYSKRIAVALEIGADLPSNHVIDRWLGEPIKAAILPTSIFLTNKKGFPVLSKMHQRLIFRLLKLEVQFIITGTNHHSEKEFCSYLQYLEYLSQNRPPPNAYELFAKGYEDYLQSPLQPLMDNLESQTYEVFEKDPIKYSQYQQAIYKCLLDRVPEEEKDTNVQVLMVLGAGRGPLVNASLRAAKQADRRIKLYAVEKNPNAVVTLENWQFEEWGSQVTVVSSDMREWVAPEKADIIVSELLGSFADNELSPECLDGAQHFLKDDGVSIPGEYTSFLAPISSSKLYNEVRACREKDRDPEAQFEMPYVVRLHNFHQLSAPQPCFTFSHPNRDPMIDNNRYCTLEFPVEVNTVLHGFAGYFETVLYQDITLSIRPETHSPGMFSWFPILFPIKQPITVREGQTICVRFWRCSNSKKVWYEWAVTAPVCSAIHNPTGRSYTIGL
T1 sequence (Q9BQA1 2-342 partner): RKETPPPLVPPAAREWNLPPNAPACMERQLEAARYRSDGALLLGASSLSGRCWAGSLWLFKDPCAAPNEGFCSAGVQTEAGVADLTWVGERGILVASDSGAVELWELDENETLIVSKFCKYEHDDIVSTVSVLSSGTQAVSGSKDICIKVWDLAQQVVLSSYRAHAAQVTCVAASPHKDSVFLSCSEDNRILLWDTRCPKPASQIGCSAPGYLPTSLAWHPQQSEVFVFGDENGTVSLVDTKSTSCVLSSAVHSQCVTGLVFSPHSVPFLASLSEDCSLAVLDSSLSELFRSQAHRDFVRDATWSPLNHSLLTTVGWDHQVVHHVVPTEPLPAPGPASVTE

| IC50 ([1]; Homo sapiens, HCT-116, 240 h) | IC50 [6, 8] | IC50 [6, 9] | IC50 [3, 10] | IC50 ([5]; IC50 + 2 μM MTA) | Structure (SMILES) | IC50 ([2]; Homo sapiens, HCT-116, 240 h) | IC50 ([4]; Homo sapiens, HCT-116, 96 h) | also measured |
| --- | --- | --- | --- | --- | --- | --- | --- | --- |
| – | – | – | – | – | CC(N)c1n[nH]c(=O)c2ccc(-c3cnn(C)c3-c3ccc4ccccc4c3C#N)cc12 (single isomer, unassigned) [Example 9-5, 2-[4-[4-(1-aminoethyl)-1-oxo-2H-phthalazin-6-yl]-2-methyl-pyrazol-3-yl]naphthalene-1-carbonitrile] | 6440 nM | > 1000 nM | IC50 [1]: 125 nM; IC50 [3, 7]: 42 nM |
| – | – | – | – | – | Cn1ncc(-c2ccc3c(=O)[nH]nc(CN)c3c2)c1-c1c(F)cc2ccccc2c1C#N (single isomer, unassigned) [Example 16-1] | – | – | IC50 [2]: 757 nM; IC50 [3, 7]: 2 nM; IC50 [4]: 316 nM; IC50 ([5]; read-out: IC50 + 2 μM MTA): 38 nM |
| 2310 nM | 0.5 nM | 17 nM | 376 nM | 892 nM | Cn1ncc(-c2ccc3c(=O)[nH]nc(CN)c3c2)c1-c1ccc(Cl)cc1C#N [Example 4-101, 2-(4-(4-(aminomethyl)-1-oxo-1,2-dihydrophthalazin-6-yl)-1-methyl-1H-pyrazol-5-yl)-5-chlorobenzonitrile] | – | 6670 nM | – |
| 4390 nM | 0.5 nM | 115 nM | 255 nM | – | Cn1ncc(-c2ccc3c(=O)[nH]nc(CN)c3c2)c1-c1cc(Cl)ccc1C#N [Example 4-103, 2-(4-(4-(aminomethyl)-1-oxo-1,2-dihydrophthalazin-6-yl)-1-methyl-1H-pyrazol-5-yl)-4-chlorobenzonitrile] | – | 6670 nM | – |
| 5320 nM | 0.5 nM | 28 nM | 391 nM | 794 nM | COc1ccc(C#N)c(-c2c(-c3ccc4c(=O)[nH]nc(CN)c4c3)cnn2C)c1 [Example 4-104, 2-(4-(4-(aminomethyl)-1-oxo-1,2-dihydrophthalazin-6-yl)-1-methyl-1H-pyrazol-5-yl)-4-methoxybenzonitrile] | – | 3330 nM | – |
| 1400 nM | 1.8 nM | 71 nM | 469 nM | 1000 nM | Cc1ccc(C#N)c(-c2c(-c3ccc4c(=O)[nH]nc(CN)c4c3)cnn2C)c1 [Example 4-105, 2-(4-(4-(aminomethyl)-1-oxo-1,2-dihydrophthalazin-6-yl)-1-methyl-1H-pyrazol-5-yl)-4-methylbenzonitrile] | – | 10000 nM | – |
| 1600 nM | 0.5 nM | 56 nM | 261 nM | 816 nM | Cc1ccc(-c2c(-c3ccc4c(=O)[nH]nc(CN)c4c3)cnn2C)c(C#N)c1 [Example 4-106, 2-(4-(4-(aminomethyl)-1-oxo-1,2-dihydrophthalazin-6-yl)-1-methyl-1H-pyrazol-5-yl)-5-methylbenzonitrile] | – | 3330 nM | – |
| 1060 nM | 0.5 nM | 37 nM | 31 nM | 760 nM | COc1cccc(-c2c(-c3ccc4c(=O)[nH]nc(CN)c4c3)cnn2C)c1C#N [Example 4-107, 2-(4-(4-(aminomethyl)-1-oxo-1,2-dihydrophthalazin-6-yl)-1-methyl-1H-pyrazol-5-yl)-6-methoxybenzonitrile] | – | 10000 nM | – |
| 1980 nM | – | – | > 3330 nM | 278 nM | NCc1n[nH]c(=O)c2ccc(-c3cnc4[nH]cc(-c5ccccc5)c4c3)cc12 [Example 4-190, 4-(aminomethyl)-6-(3-phenyl-1H-pyrrolo[2,3-b]pyridin-5-yl)phthalazin-1(2H)-one] | – | > 3330 nM | – |
| 120 nM | – | – | 2 nM | 276 nM | CCc1c(Cl)ccc(-c2c(-c3ccc4c(=O)[nH]nc(CN)c4c3)cnn2C)c1C#N [Example 4-199, 6-(4-(4-(aminomethyl)-1-oxo-1,2-dihydrophthalazin-6-yl)-1-methyl-1H-pyrazol-5-yl)-3-chloro-2-ethylbenzonitrile] | 8850 nM | – | – |
| 155 nM | – | – | 16 nM | 948 nM | CCc1c(OC)ccc(-c2c(-c3ccc4c(=O)[nH]nc(CN)c4c3)cnn2C)c1C#N [Example 4-201, 2-(4-(4-(aminomethyl)-1-oxo-1,2-dihydrophthalazin-6-yl)-1-methyl-1H-pyrazol-5-yl)-6-ethyl-5-methoxybenzonitrile] | > 10000 nM | – | – |
| 19 nM | – | – | 2 nM | – | Cn1ncc(-c2ccc3c(=O)[nH]nc(CN)c3c2)c1-c1c(F)cc2ccccc2c1C#N [Example 4-203, 2-(4-(4-(aminomethyl)-1-oxo-1,2-dihydrophthalazin-6-yl)-1-methyl-1H-pyrazol-5-yl)-3-fluoro-1-naphthonitrile] | 1210 nM | 903 nM | – |
| 52 nM | – | – | 12 nM | – | COc1cccc2c(C#N)c(-c3c(-c4ccc5c(=O)[nH]nc(CN)c5c4)cnn3C)ccc12 [Example 4-204, 2-(4-(4-(aminomethyl)-1-oxo-1,2-dihydrophthalazin-6-yl)-1-methyl-1H-pyrazol-5-yl)-5-methoxy-1-naphthonitrile] | 1830 nM | > 1000 nM | – |
| 98 nM | – | – | 3 nM | – | Cn1ncc(-c2ccc3c(=O)[nH]nc(CN)c3c2)c1-c1cc(C#N)c2ccccc2c1C#N [Example 4-207, 2-(4-(4-(aminomethyl)-1-oxo-1,2-dihydrophthalazin-6-yl)-1-methyl-1H-pyrazol-5-yl)naphthalene-1,4-dicarbonitrile] | – | > 10000 nM | – |
| 59 nM | – | – | 10 nM | – | Cn1ncc(-c2ccc3c(=O)[nH]nc(CN)c3c2)c1-c1cc(C(F)(F)F)cc(OC2CC2)c1C#N [Example 4-209, 2-(4-(4-(aminomethyl)-1-oxo-1,2-dihydrophthalazin-6-yl)-1-methyl-1H-pyrazol-5-yl)-6-cyclopropoxy-4-(trifluoromethyl)benzonitrile] | 4670 nM | > 1000 nM | – |
| – | – | – | – | – | Cn1ncc(-c2ccc3c(=O)[nH]nc(CN)c3c2)c1-c1c(F)c(Cl)cc(OC2CC2)c1C#N [Example 4-230, 2-(4-(4-(aminomethyl)-1-oxo-1,2-dihydrophthalazin-6-yl)-1-methyl-1H-pyrazol-5-yl)-4-chloro-6-cyclopropoxy-3-fluorobenzonitrile] | 1890 nM | > 1000 nM | IC50 ([3]; Homo sapiens, HCT-116, 96 h, read-out: In-cell-Western (SYM11) HCT116 MTAP_KO IC50, HCT116 homozygous MTAP knockout cells, 4 days of treatment, SYM11/DRAQ5 ratio): 6 nM |
| 2170 nM | – | – | 377 nM | – | CCOc1ccc(-c2c(-c3ccc4c(=O)[nH]nc(CN)c4c3)cnn2C)cc1 [Example 4-254, 4-(aminomethyl)-6-[5-(4-ethoxyphenyl)-1-methyl-pyrazol-4-yl]-2H-phthalazin-1-one] | – | 3330 nM | – |
| 489 nM | – | – | 8 nM | 1930 nM | CCOc1cccc(-c2c(-c3cc(C)c4c(=O)[nH]nc(CN)c4c3)cnn2C)c1C#N [Example 10-9, 2-(4-(4-(aminomethyl)-8-methyl-1-oxo-1,2-dihydrophthalazin-6-yl)-1-methyl-1H-pyrazol-5-yl)-6-ethoxybenzonitrile] | 9820 nM | – | – |
